From patent US20050054696A1, “Indole compounds and medicinal use thereof” (priority 2001, published 2005) come the findings set out here.

The target of this assay is T1, recombinant human liver glycogen phosphorylase (HLGPa) (Homo sapiens, UniProt P06737).
T1 construct: made in house; host or cells: Sf9 insect cells (unpurified cell lysate used as enzyme solution)
T1 sequence (P06737 1-847): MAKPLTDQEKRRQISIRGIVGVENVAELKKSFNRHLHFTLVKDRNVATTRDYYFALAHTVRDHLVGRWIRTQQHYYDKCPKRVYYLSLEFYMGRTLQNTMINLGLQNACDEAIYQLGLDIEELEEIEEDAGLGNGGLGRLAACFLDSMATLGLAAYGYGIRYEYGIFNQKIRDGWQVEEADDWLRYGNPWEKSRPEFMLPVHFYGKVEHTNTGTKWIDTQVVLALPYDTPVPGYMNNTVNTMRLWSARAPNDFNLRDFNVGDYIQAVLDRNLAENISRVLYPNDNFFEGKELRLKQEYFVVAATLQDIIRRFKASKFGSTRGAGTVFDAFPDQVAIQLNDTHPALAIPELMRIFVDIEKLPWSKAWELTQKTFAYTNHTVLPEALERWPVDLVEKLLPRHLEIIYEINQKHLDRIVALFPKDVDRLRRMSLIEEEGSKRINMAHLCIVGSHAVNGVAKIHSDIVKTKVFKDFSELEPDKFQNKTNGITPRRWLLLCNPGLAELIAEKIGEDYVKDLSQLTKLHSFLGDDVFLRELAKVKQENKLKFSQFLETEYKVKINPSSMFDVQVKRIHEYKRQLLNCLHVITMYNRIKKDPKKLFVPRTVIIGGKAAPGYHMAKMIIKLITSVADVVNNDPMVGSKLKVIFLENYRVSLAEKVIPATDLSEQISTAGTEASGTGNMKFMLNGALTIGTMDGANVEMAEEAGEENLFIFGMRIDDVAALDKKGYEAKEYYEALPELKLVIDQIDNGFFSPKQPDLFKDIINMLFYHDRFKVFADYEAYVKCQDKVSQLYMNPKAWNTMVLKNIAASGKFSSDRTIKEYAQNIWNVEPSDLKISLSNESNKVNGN
In words: Measurement of liver glycogen phosphorylase activity (enzyme inhibitory activity against HLGPa). Type of assay: biochemical. As to conditions: Sf9 cell lysate expressing recombinant enzyme; reverse reaction (glycogen synthesis from G1-P), phosphate by malachite green, 60 min room temperature. As to the method: Measurement Method of Liver Glycogen Phosphorylase Activity
The measurement of the glycogen phosphorylase activity was performed by measuring the concentration of phosphoric acic produced by a reverse reaction, that is, a reaction wherein the glycogen phosphorylase synthesizes glycogen from G1-P. A cell lysate of Sf9 cells that forcibly expressed recombinant human liver glycogen phosphorylase was diluted to a protein amount of 80 μg/mL with 1 mM imidazole-hydrochloric acid buffer (pH 7.0, containing 0.2 mM PMSF, 250 mM NaCl, 0.025% BSA) and the dilute cell lysate was used as an enzyme solution of human liver glycogen phosphorylase. As a substrate solution, 25 mM Tris-HCl buffer (pH 7.2, containing 250 mM KCl, 6.25 mM MgCl2, 6.25 mM EGTA, 1.25 mM glucose-1-phosphate, 2.5 mg/ml glycogen, 7.5 mM glucose) was used. The test drug was dissolved in 0.5% dimethyl sulfoxide (DMSO). To a mixture of the test drug (10 μl) and the substrate solution (20 μl) was added an enzyme solution (20 μl) to start the enzyme reaction. As a control, 0.5% DMSO was added instead of the test drug. One free of addition of enzyme was used as a blank. The mixture was reacted at room temperature for 60 min, and a malachite green solution (50 μl) was added. The mixture was further reacted at room temperature for 20 min and absorbance at 650 nm was measured. An enzyme solution was added to the blank simultaneously with the malachite green solution and the measurement was done in the same manner. The percent inhibition (%) of the test drug was calculated from ((value of control−value of the test drug)/(value of control−value of blank))×100 (%).
Consider `Cc1cccc(N)c1C(=O)NNC(=O)c1cc2cc(Cl)ccc2[nH]1` [Example 1-98, 2-amino-6-methylbenzoic acid 2-(5-chloro-1H-indole-2-carbonyl)hydrazide], for which the concentration for half-maximal inhibition (IC50) worked out at 0.087 µM.
As to `Cc1ccc(C(=O)NNC(=O)c2cc3cc(Cl)ccc3[nH]2)c(N)c1` [Example 1-95, 2-amino-4-methylbenzoic acid 2-(5-chloro-1H-indole-2-carbonyl)hydrazide], the IC50 turned out to be 0.28 µM.
In the case of `Cc1ccc2[nH]c(C(=O)NNC(=O)c3cc(F)c(F)cc3N)cc2c1` [Example 1-67, 2-Amino-4,5-difluorobenzoic acid 2-(5-methyl-1H-indole-2-carbonyl)hydrazide], the half-maximal inhibitory concentration (IC50) was found to be 0.054 µM.
Regarding `Nc1ccccc1C(=O)NNC(=O)c1cc2ccc(Cl)cc2[nH]1` [Example 1-39, 2-aminobenzoic acid 2-(6-chloro-1H-indole-2-carbonyl)hydrazide], the IC50 is 0.81 µM.
For `Cc1ccc2[nH]c(C(=O)Nn3c(=O)[nH]c4cc(F)c(F)cc4c3=O)cc2c1` [Example 2-26, 5-methyl-1H-indole-2-carboxylic acid (6,7-difluoro-1,2,3,4-tetrahydro-2,4-dioxoquinazolin-3-yl)amide], the 50% inhibitory concentration (IC50) came to 0.21 µM.
Consider `O=C(NNC(=O)c1ccc(F)cc1F)c1cc2cc(Cl)ccc2[nH]1` [Example 1-26, 2,4-difluorobenzoic acid 2-(5-chloro-1H-indole-2-carbonyl)hydrazide], for which the 50% inhibitory concentration (IC50) came out at 0.018 µM.
For `O=C(NNC(=O)c1ccccc1C(F)(F)F)c1cc2cc(Cl)ccc2[nH]1` [Example 1-32, 2-trifluoromethylbenzoic acid 2-(5-chloro-1H-indole-2-carbonyl)hydrazide], the concentration for half-maximal inhibition (IC50) was found to be 0.35 µM.
The figure for `O=C(NNC(=O)c1cc2cc(Cl)ccc2[nH]1)c1cc(F)c(F)c(F)c1` [Example 1-93, 3,4,5-trifluorobenzoic acid 2-(5-chloro-1H-indole-2-carbonyl)hydrazide] is 0.27 µM; for `CCc1ccc2[nH]c(C(=O)NNC(=O)c3ccccc3N)cc2c1` [Example 1-66, 2-aminobenzoic acid 2-(5-ethyl-1H-indole-2-carbonyl)hydrazide] it is above 0.1 µM; for `O=C(NN1C(=O)CCN(c2ccc(Cl)cc2)C1=O)c1cc2cc(Cl)ccc2[nH]1` [Example 3-14, 5-chloro-1H-indole-2-carboxylic acid (1-(4-chlorophenyl)-2,4-dioxoperhydropyrimidin-3-yl)amide] it is 0.12 µM.
On to `O=C(NNC(=O)c1cc2cc(Cl)ccc2[nH]1)c1ccc(-c2ncn[nH]2)cc1` [Example 1-73, 4-(2H-[1,2,4]triazol-3-yl)benzoic acid 2-(5-chloro-1H-indole-2-carbonyl)hydrazide], for which the half-maximal inhibitory concentration (IC50) was 0.076 µM.
The figure for `O=C(O)COc1ccccc1C(=O)NNC(=O)c1cc2cc(Cl)ccc2[nH]1` [Example 1-50, 2-(2-(2-(5-chloro-1H-indole-2-carbonyl)hydrazinocarbonyl)phenoxy)acetic acid] is 0.027 µM; for `Cc1ccc(C(=N)NNC(=O)c2cc3cc(Cl)ccc3[nH]2)n1C` [Example 6-27, 5-chloro-1H-indole-2-carboxylic acid 2-((1,2-dimethyl-1H-pyrrol-5-yl)-imino-methyl)hydrazide methanesulfonate] it is 0.17 µM; for `Cc1ccccc1C(=N)NNC(=O)c1cc2cc(Cl)ccc2[nH]1` [Example 1-133, 5-chloro-1H-indole-2-carboxylic acid 2-(imino-(o-tolyl)-methyl)hydrazide] it is 0.05 µM.
On to `O=C(NN1C(=O)N[C@@H](Cc2ccccc2)C1=O)c1cc2cc(Cl)ccc2[nH]1` [Example 4-9, 5-chloro-1H-indole-2-carboxylic acid ((4S)-4-benzyl-2,5-dioxoimidazolidin-1-yl)amide], for which the half-maximal inhibitory concentration (IC50) is above 0.1 µM.
With `Nc1cnccc1C(=O)NNC(=O)c1cc2cc(Cl)ccc2[nH]1` [Example 1-41, 3-aminoisonicotinic acid 2-(5-chloro-1H-indole-2-carbonyl)hydrazide], the IC50 was found to be 0.31 µM.
Take `Nc1cccc(Cl)c1C(=O)NNC(=O)c1cc2cc(Cl)ccc2[nH]1` [Example 1-55, 2-amino-6-chlorobenzoic acid 2-(5-chloro-1H-indole-2-carbonyl)hydrazide]: the IC50 worked out at 0.087 µM.
As to `Cc1ccc2[nH]c(C(=O)NNC(=O)c3ccccc3N)cc2c1` [Example 6-28, 2-aminobenzoic acid 2-(5-methyl-1H-indole-2-carbonyl)hydrazide p-toluenesulfonate], the IC50 came out at 0.25 µM.
Take `O=C(Nn1c(=O)[nH]c2ccccc2c1=O)c1cc2cc(F)ccc2[nH]1` [Example 2-11, 5-fluoro-1H-indole-2-carboxylic acid (1,2,3,4-tetrahydro-2,4-dioxoquinazolin-3-yl)amide]: the IC50 is above 0.1 µM.
With `O=C(NNC(=O)C1CCCCC1)c1cc2cc(F)ccc2[nH]1` [Example 1-10, cyclohexanecarboxylic acid 2-(5-fluoro-1H-indole-2-carbonyl)hydrazide] the figure was 0.2 µM; with `O=C(NNC(=O)c1cc2ccsc2[nH]1)c1cc2cc(Cl)ccc2[nH]1` [Example 1-125, 6H-thieno[2,3-b]pyrrole-5-carboxylic acid 2-(5-chloro-1H-indole-2-carbonyl)hydrazide], 0.19 µM; with `O=C(Nn1c(=O)oc2ccccc2c1=O)c1cc2cc(Cl)ccc2[nH]1` [Example 2-2, N-(1,2,3,4-tetrahydro-2,4-dioxobenzo[e][1,3]oxazin-3-yl)-5-chloro-1H-indole-2-carboxamide], 0.071 µM.
The figure for `O=C(NNC(=O)c1cc2cc(Cl)ccc2[nH]1)c1cccc(-c2nnn[nH]2)c1` [Example 1-60, 3-(1H-tetrazol-5-yl)benzoic acid 2-(5-chloro-1H-indole-2-carbonyl)hydrazide] is above 0.1 µM; for `O=C(NNC(=O)c1cccc2ccccc12)c1cc2cc(Cl)ccc2[nH]1` [Example 1-92, 5-chloro-1H-indole-2-carboxylic acid 2-(naphthalene-1-carbonyl)hydrazide] it is 0.071 µM; for `O=C(NNC(=O)c1ccccc1Cl)c1cc2cc(Cl)ccc2[nH]1` [Example 1-19, 2-chlorobenzoic acid 2-(5-chloro-1H-indole-2-carbonyl)hydrazide] it is 0.091 µM.
Regarding `CN1C(=O)N(NC(=O)c2cc3cc(Cl)ccc3[nH]2)C(=O)[C@@H]1c1ccccc1` [Example 4-12, 5-chloro-1H-indole-2-carboxylic acid (1-methyl-2,5-dioxo-4-phenylimidazolidin-1-yl)amide], the IC50 is above 0.1 µM.
As for `O=C(NNC(=O)c1cc2cc(Cl)ccc2[nH]1)Nc1ccc(F)cc1` [Example 5-7, 5-chloro-1H-indole-2-carboxylic acid 2-((4-fluorophenyl)aminocarbonyl)hydrazide], the IC50 was determined as 0.088 µM.
As for `O=C(NNC(=O)c1c(Cl)cccc1Cl)c1cc2cc(Cl)ccc2[nH]1` [Example 1-25, 2,6-dichlorobenzoic acid 2-(5-chloro-1H-indole-2-carbonyl)hydrazide], the IC50 is 0.14 µM.
On to `O=C(NNC(=O)c1cc2cc(Cl)ccc2[nH]1)c1ccc(F)cc1` [Example 1-29, 4-fluorobenzoic acid 2-(5-chloro-1H-indole-2-carbonyl)hydrazide], for which the IC50 amounted to 0.015 µM.
Regarding `Cc1ccc2[nH]c(C(=O)NNC(=O)c3ccccc3N)cc2c1` [Example 1-62, 2-aminobenzoic acid 2-(5-methyl-1H-indole-2-carbonyl)hydrazide], the IC50 turned out to be 0.088 µM.
In the case of `O=C(NNC(=O)C1(c2ccccc2)CC1)c1cc2cc(Cl)ccc2[nH]1` [Example 5-12, 5-chloro-1H-indole-2-carboxylic acid 2-((1-phenylcyclopropane)carbonyl)hydrazide], the IC50 was 0.29 µM.

The term IC50 denotes the concentration at which inhibition is half-maximal.
